Results from ChEMBL document CHEMBL1201862, “PubChem BioAssay data set” (2004).
Active and inactive are the calls of the source.

Experiments:
[1] = luciferase reporter signal suppression in cells – H4 neuroglioma cells, luminescence, dose response (AID 1990); assay type: functional, cell-based
[2] = Luminescence Cell-Based Dose Response HTS to Identify Inhibitors of 5'UTR Stem-Loop Driven Prion Protein mRNA Translation in H4 Neuroglioblastoma Cells. [Related pubchem assays: 1827 (Project Summary), 1813 (Primary HTS)]; assay type: functional
Vero = assay: mammalian cell viability reduction – secondary assay, cytotoxicity control for West Nile virus antiviral project, dose response (AID 1650); assay type: functional; conditions: Chlorocebus sabaeus
[3] = alpha-synuclein stem-loop luciferase translation blockers – H4 neuroglioma cells, luminescence, confirmation (AID 1988); assay type: functional, cell-based
[4] = blockers of HIV-1 ZM109 envelope-driven cell-cell fusion – HeLa effector, CEM target cells, luciferase, cherry-pick, dose response (AID 652058); assay type: functional, cell-based;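 also: luciferase signal from HIV-1 Env mediated cell-cell fusion of effector and target cells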
[5] = off-target signal loss in HeLa-CEM21 co-culture – HeLa F-luc CTL cells, cherry-picked, counter-screen for HIV-1 Env fusion inhibitor project, dose response (AID 652040); assay type: functional, cell-based;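 also: potency for signal decrease marking cytotoxic or nonspecific inhibition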
[6] = HIV-1 AD8 envelope cell-cell fusion blockers – cherry-pick, dose response (AID 652062); assay type: functional, cell-based;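 also: luciferase signal from cell-cell fusion driven by HIV-1 clade B AD8 Env; potency is for inhibitors of fusion seen as a drop in luminescence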
[7] = molecular target: T1, Long-chain-fatty-acid--AMP ligase FadD28 (Mycobacterium tuberculosis, UniProt P9WQ59); assay: Fluorescence polarization aasay to screen for inhibitors that compete for the binding of FadD28 to a bisubstrate Measured in Biochemical System Using Plate Reader - 2147-01_Inhibitor_Dose_CherryPick_Activity.; assay type: functional, Mycobacterium tuberculosis H37Rv
T1 sequence (P9WQ59 whole entry): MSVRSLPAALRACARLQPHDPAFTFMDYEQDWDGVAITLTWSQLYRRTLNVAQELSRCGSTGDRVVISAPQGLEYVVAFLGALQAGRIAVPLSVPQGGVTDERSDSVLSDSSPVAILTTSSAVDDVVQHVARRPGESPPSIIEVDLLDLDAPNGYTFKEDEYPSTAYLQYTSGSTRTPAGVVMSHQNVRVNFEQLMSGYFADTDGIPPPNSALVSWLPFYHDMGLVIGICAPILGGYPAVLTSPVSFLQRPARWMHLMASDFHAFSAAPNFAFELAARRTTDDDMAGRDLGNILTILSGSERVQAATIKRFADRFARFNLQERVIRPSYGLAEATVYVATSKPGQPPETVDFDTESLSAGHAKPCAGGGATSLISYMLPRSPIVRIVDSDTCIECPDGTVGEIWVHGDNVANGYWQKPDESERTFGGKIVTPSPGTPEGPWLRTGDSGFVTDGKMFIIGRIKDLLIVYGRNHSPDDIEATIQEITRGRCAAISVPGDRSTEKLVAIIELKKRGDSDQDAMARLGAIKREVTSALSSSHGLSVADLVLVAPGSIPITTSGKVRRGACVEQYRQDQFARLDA

[8] = A cytotoxicity screen of small molecule inhibitors of the PhoP region in Salmonella typhi identified in the primary screen. [Related pubchem assays: 1850, 1864, 1985 ]; assay type: functional
[9] = molecular target: Glyceraldehyde-3-phosphate dehydrogenase (Homo sapiens, UniProt P04406)
Estrogen receptor beta = Estrogen receptor beta (Homo sapiens, UniProt Q92731); assay: blockers of SRC-3 recruitment to ERβ – biochemical, ELISA, streptavidin-HRP readout, orthogonal assay, confirmation (AID 1060)
Leucine aminopeptidase = molecular target: T2, Leucine aminopeptidase (Plasmodium falciparum 3D7, UniProt Q8IL11); assay: P. falciparum M17LAP inhibitors, primary screen, biochemical, fluorogenic H-Leu-NHMec substrate, 1536-well (AID 1619); assay type: functional
T2 sequence (Q8IL11 whole entry): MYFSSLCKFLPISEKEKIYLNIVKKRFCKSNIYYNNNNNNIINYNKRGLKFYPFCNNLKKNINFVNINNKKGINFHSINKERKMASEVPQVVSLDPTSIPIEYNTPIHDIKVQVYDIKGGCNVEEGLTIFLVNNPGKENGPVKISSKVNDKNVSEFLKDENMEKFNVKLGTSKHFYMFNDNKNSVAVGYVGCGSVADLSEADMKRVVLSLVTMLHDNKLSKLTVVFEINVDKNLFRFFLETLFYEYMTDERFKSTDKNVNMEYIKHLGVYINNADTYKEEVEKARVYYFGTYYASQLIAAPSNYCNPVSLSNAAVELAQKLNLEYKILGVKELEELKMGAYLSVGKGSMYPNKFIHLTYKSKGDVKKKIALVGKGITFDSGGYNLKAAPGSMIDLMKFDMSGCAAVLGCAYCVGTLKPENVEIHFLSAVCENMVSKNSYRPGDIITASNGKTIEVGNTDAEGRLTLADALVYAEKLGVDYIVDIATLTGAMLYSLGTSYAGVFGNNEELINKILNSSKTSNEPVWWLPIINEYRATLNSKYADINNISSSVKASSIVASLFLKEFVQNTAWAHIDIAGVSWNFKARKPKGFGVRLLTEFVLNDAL

[10] = molecular target: T3, Ubiquitin-conjugating enzyme E2 N (Homo sapiens, UniProt P61088); assay type: functional;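 also: Dose-response confirmation in a TR-FRET assay detecting UBC13-driven polyubiquitin chain formation, inhibition measured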
T3 sequence (P61088 whole entry): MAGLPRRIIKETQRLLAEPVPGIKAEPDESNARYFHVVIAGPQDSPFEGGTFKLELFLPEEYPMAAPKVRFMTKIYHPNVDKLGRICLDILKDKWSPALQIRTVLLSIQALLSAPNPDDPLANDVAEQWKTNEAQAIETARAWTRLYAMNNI

[11] = molecular target: T4, DNA repair protein RAD52 homolog (Homo sapiens, UniProt P43351); assay type: functional, biochemical
T4 sequence (P43351 whole entry): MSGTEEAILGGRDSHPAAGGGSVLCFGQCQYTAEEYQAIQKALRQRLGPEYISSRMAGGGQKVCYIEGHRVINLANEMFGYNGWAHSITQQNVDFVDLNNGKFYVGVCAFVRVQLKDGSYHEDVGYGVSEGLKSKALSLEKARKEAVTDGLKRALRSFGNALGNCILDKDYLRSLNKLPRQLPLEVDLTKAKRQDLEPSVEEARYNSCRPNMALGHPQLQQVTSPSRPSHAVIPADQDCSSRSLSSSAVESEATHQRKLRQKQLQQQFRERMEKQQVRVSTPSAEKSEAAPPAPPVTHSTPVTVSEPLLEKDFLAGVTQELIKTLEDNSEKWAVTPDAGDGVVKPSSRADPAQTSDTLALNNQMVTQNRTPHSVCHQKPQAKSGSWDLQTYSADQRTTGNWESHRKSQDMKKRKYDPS

[12] = molecular target: T5, Histone-lysine N-methyltransferase NSD2 (Homo sapiens, UniProt O96028); assay type: biochemical
T5 sequence (O96028 whole entry): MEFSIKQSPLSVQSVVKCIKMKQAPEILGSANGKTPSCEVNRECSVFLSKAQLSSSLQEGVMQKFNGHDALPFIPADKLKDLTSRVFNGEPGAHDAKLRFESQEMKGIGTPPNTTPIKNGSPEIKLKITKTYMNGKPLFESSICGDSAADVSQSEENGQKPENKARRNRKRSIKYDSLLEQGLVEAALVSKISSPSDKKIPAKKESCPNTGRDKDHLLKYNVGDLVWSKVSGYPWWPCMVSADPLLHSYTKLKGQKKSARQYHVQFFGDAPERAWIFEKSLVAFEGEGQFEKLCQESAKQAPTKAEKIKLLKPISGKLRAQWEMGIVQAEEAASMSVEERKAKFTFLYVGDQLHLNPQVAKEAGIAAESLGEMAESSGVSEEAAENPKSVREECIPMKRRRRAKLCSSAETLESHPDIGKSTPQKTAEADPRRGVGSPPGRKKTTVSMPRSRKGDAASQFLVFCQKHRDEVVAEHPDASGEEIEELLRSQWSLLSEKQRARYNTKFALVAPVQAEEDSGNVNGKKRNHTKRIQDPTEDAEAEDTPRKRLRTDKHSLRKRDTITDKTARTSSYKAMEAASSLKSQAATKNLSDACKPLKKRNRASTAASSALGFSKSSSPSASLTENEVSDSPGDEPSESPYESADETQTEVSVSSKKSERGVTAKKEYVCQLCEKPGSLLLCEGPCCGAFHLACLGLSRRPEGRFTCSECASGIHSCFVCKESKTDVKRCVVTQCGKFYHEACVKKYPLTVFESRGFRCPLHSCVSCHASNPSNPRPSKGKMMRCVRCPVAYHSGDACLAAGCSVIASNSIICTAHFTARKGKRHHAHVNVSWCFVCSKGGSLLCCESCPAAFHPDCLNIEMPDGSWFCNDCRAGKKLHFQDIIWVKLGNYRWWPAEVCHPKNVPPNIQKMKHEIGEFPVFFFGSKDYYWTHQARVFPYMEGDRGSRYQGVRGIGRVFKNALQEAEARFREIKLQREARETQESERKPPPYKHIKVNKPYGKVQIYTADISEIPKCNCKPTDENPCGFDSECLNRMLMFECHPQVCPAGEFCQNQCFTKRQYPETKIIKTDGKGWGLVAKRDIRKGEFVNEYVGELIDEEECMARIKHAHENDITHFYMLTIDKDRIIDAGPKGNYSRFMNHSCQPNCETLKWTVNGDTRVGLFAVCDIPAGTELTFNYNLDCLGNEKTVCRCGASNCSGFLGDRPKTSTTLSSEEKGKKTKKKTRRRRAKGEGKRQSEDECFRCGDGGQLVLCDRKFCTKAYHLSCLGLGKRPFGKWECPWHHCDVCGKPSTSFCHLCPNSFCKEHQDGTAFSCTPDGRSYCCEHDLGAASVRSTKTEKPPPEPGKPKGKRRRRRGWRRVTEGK

[13] = molecular target: T6, Polyadenylate-binding protein 1 (Homo sapiens, UniProt P11940); assay: MLLE binding blockers, Cy5 peptide tracer – biochemical, fluorescence polarization, Cy5-PAM2 peptide, secondary, miRNA deadenylation inhibitor project, dose response (AID 602260); assay type: functional; conditions: read-out: IC50_Mean
[14] = molecular target: T6, Polyadenylate-binding protein 1; assay: MLLE domain peptide-binding blockers, IC50 – biochemical, fluorescence polarization, FITC-PAM2 peptide, dose response (AID 602259); assay type: functional; conditions: read-out: IC50_Mean
[15] = blockers of HIV-1 envelope-mediated cell-cell fusion – cherry-pick, dose response (AID 652057); assay type: functional, cell-based
[16] = activation of miR-122 Renilla sensor silencing – cell-based, Huh7 psiCHECK-miR122, Renilla luciferase, cherry-picked, dose response (AID 651956); assay type: functional;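 also: huh7 hepatoma cells stably carrying a psiCHECK-2 miR-122 sensor plasmid; renilla luciferase signal reporting endogenous miR-122 activity after 48 h compound exposure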
[17] = general mammalian cell viability loss – inhibitor set, cherry-pick, set 2, cytotoxicity control for miR-122 modulator project, dose response (AID 720697); assay type: functional, cell-based

Sequence of Glyceraldehyde-3-phosphate dehydrogenase (P04406 whole entry): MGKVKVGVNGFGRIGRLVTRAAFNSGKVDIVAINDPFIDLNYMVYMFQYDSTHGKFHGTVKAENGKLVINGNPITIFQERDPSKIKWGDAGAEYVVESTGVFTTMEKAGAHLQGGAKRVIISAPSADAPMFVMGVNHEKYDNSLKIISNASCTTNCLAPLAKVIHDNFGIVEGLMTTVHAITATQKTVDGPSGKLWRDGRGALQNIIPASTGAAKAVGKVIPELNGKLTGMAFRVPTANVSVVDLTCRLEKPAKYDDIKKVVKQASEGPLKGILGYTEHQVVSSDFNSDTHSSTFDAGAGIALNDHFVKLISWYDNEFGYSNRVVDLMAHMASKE
T6 sequence (P11940 whole entry, the tested form may be a part): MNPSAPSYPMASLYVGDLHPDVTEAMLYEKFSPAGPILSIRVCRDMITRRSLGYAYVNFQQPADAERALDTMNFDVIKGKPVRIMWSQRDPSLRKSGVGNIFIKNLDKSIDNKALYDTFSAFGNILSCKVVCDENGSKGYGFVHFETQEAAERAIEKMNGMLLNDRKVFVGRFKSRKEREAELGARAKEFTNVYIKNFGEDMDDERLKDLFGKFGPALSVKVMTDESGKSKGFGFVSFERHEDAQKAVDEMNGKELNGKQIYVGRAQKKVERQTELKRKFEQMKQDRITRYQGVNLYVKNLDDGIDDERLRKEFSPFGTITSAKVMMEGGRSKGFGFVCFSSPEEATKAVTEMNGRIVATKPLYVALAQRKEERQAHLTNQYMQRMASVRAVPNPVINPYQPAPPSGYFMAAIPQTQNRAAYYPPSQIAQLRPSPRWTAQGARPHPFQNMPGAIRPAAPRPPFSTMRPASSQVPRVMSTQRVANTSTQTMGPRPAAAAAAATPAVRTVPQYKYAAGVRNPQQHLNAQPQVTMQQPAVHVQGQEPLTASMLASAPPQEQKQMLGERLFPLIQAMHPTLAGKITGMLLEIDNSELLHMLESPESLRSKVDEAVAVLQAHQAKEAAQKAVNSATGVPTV
Sequence of Estrogen receptor beta (Q92731 whole entry): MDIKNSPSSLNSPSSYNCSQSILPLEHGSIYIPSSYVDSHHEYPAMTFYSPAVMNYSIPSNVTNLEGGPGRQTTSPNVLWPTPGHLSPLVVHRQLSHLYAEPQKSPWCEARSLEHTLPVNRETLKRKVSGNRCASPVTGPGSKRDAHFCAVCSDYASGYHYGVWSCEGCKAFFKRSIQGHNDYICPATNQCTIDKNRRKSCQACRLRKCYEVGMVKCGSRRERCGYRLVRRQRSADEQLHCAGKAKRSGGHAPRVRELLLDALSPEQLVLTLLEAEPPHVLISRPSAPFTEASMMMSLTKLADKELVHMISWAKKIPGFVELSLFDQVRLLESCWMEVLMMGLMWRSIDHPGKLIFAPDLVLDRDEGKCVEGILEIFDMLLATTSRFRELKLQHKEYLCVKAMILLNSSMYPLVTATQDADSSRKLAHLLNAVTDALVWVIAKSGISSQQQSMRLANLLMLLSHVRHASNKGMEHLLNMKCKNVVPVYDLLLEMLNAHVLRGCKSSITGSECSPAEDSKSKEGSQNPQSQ

SMILES: CN1CCN(c2nc3ccccc3nc2C(C#N)S(=O)(=O)c2ccccc2)CC1 (centres undefined)
- EC50 [1]: > 120 µM (not active)
- EC50 [2]: > 120 µM (not active)
- CC50 (Vero): 4.16 µM (active)
- EC50 [3]: 18.8 µM (active)

SMILES: CC(C)NS(=O)(=O)c1ccc(OCC(=O)N2CCN(Cc3ccc4c(c3)OCO4)CC2)c(Cl)c1
- AC50 [4]: 1.86 µM (active)
- AC50 [5]: 29.7 µM (active)
- AC50 [6]: 13.4 µM (active)

SMILES: CCOc1cc(/C=C2/NC(=O)N(CC(=O)Nc3cccc(C)c3)C2=O)ccc1O
- AC50 [7]: 51.7 µM (active)

SMILES: Cc1cc(C)nc(SCC(=O)Nc2sc3c(c2C#N)CCC(C)C3)n1 (centres undefined)
- EC50 [8]: > 50 µM (active)

SMILES: C/C(NNC(=O)c1ccccc1O)=C1/C(=O)NC(=O)N(C2CCCCC2)C1=O
- AC50 [7]: 24.7 µM (active)

SMILES: O=C1C(Cl)=C(N2CCN(c3ccccc3)CC2)C(=O)N1c1ccc(C(F)(F)F)cc1
- IC50 [9]: > 50 µM (inconclusive)

SMILES: CCn1cc(-c2cc(C(F)(F)F)n3nc(C(=O)O)cc3n2)c(C)n1
- IC50 (Estrogen receptor beta): 3.41 µM (not active)

SMILES: Cc1ccc(C(=O)Nc2nc(=O)n(C(=O)CC(C)C)s2)cc1
- IC50 (Leucine aminopeptidase): 24.5 µM (active)

SMILES: Cc1ccc(NC(=O)CN2C(=O)S/C(=C\c3cc(C)n(-c4ccc(C(=O)O)cc4)c3C)C2=O)cc1
- AC50 [7]: 2.97 µM (active)

SMILES: COc1ccc(-n2cnc3c(sc4nc(N5CCOCC5)c5c(c43)CCCC5)c2=O)cc1
- EC50 [8]: > 50 µM (active)

SMILES: CN(C)CCn1cnc2c(c1=N)C(c1ccccc1)c1ccc3ccccc3c1O2 (centres undefined)
- EC50 [1]: > 120 µM (not active)
- EC50 [2]: 0.18 µM (active)
- EC50 [3]: > 120 µM (not active)
- IC50 [10]: > 20 µM (inactive)
- AC50 [11]: 23.6 µM (active)

SMILES: O=C(Nc1ccc(Cl)cc1-c1nc2ccccc2s1)c1ccco1
- CC50 (Vero): 13.3 µM (active)

SMILES: CCCN(CCC)CCCN=C(S)Nc1ccc2nc(N3CCN(CC)CC3)cc(C)c2c1
- AC50 [11]: 5.26 µM (active)
- AC50 [12]: > 20 µM (inactive)

SMILES: O=C(O)COc1ccc(Br)cc1/C=C1/SC(=O)N(CC(=O)N2CCCC2)C1=O
- IC50 (Leucine aminopeptidase): 34.8 µM (active)

SMILES: Cc1nnc(N2C(=O)c3oc4ccccc4c(=O)c3C2c2ccco2)s1 (centres undefined)
- IC50 (Estrogen receptor beta): 0.0501 µM (not active)
- IC50 [13]: > 66 µM (inactive)
- IC50 [14]: > 66 µM (inactive)

SMILES: O=C(C[C@@H]1C/C=C/CC[C@@H](Cc2ccc(F)cc2)C(=O)O[C@H](c2ccccc2)CNC1=O)NCCO
- AC50 [15]: 5.18 µM (active)
- AC50 [4]: 5.4 µM (active)
- AC50 [5]: 6.16 µM (active)
- AC50 [6]: 6.44 µM (active)

SMILES: COCC(=O)N(C)C[C@H]1Oc2cc(C#Cc3cccnc3)ccc2S(=O)(=O)N([C@@H](C)CO)C[C@@H]1C
- AC50 [16]: 32.8 µM (active)

SMILES: O=S1(=O)c2c(cccc2N2CCCCC2)O[C@H](COCc2ccccc2)CN1C1CC1
- AC50 [15]: 6.53 µM (active)
- AC50 [4]: 4.61 µM (active)
- AC50 [5]: 16.3 µM (active)
- AC50 [6]: 22.4 µM (active)

SMILES: COCC(=O)NC[C@H]1[C@@H](c2ccc(C3=CCCC3)cc2)[C@@H](CO)N1C(=O)C1CC1
- AC50 [17]: 9.14 µM (active)

SMILES: O=C(O)CC/C(=N/NC(=O)c1cccs1)c1ccccc1
- IC50 (Leucine aminopeptidase): 36 µM (active)

SMILES: COc1ccc(Br)cc1S(=O)(=O)Nc1cnc2ccccc2c1
- IC50 [9]: > 100 µM (not active)
